“And” between values parts separate entries of the source, which are not always exact repeats. Identical values can stand only once.
System: A498 complex spheroid viability
Test: Anticancer human tumor A498 cell line growth inhibition;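 further: spheroids exposed to agents for seven days before readout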;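 on viability, T/C: 100% = DMSO vehicle-treated spheroids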
Details: for viability, T/C: stronger effect = lower value
Procedure, shortened: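 Complex spheroids of tumor cells with HUVEC and human MSCs, exposed to iadademstat combined with other agents. Each agent tested in half-log steps from near clinical Cmax (else 10 microM top), DMSO ≤0.25%.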

[1] = curve of first compound, second compound 0.1 µM
[2] = curve of first compound, second compound 0.316 µM
[3] = curve of first compound, second compound 1 µM
[4] = curve of first compound, second compound 3.16 µM
[5] = curve of first compound, second compound 10 µM
[6] = second compound 0.1 µM, first compound 0.00316 µM
[7] = second compound 0.1 µM, first compound 0.01 µM
[8] = second compound 0.1 µM, first compound 0.0316 µM
[9] = second compound 0.1 µM, first compound 0.1 µM
[10] = second compound 0.1 µM, first compound 0.316 µM
[11] = second compound 0.1 µM, first compound 1 µM
[12] = second compound 0.316 µM, first compound 0.00316 µM
[13] = second compound 0.316 µM, first compound 0.01 µM
[14] = second compound 0.316 µM, first compound 0.0316 µM
[15] = second compound 0.316 µM, first compound 0.1 µM
[16] = second compound 0.316 µM, first compound 0.316 µM
[17] = second compound 0.316 µM, first compound 1 µM
[18] = second compound 1 µM, first compound 0.00316 µM
[19] = second compound 1 µM, first compound 0.01 µM
[20] = second compound 1 µM, first compound 0.0316 µM
[21] = second compound 1 µM, first compound 0.1 µM
[22] = second compound 1 µM, first compound 0.316 µM
[23] = second compound 1 µM, first compound 1 µM
[24] = second compound 3.16 µM, first compound 0.00316 µM
[25] = second compound 3.16 µM, first compound 0.01 µM
[26] = second compound 3.16 µM, first compound 0.0316 µM
[27] = second compound 3.16 µM, first compound 0.1 µM
[28] = second compound 3.16 µM, first compound 0.316 µM
[29] = second compound 3.16 µM, first compound 1 µM
[30] = second compound 10 µM, first compound 0.00316 µM
[31] = second compound 10 µM, first compound 0.01 µM
[32] = second compound 10 µM, first compound 0.0316 µM
[33] = second compound 10 µM, first compound 0.1 µM
[34] = second compound 10 µM, first compound 0.316 µM
[35] = second compound 10 µM, first compound 1 µM
[36] = second compound 0.1 µM, first compound 3.16 µM
[37] = second compound 0.1 µM, first compound 10 µM
[38] = second compound 0.316 µM, first compound 3.16 µM
[39] = second compound 0.316 µM, first compound 10 µM
[40] = second compound 1 µM, first compound 3.16 µM
[41] = second compound 1 µM, first compound 10 µM
[42] = second compound 3.16 µM, first compound 3.16 µM
[43] = second compound 3.16 µM, first compound 10 µM
[44] = second compound 10 µM, first compound 3.16 µM
[45] = second compound 10 µM, first compound 10 µM

SMILES	IC50 [1] [nM]	IC50 [2] [nM]	IC50 [3] [nM]	IC50 [4] [nM]	IC50 [5] [nM]	viability, T/C [8] [%]	viability, T/C [9] [%]	viability, T/C [10] [%]	viability, T/C [11] [%]	viability, T/C [14] [%]	viability, T/C [15] [%]	viability, T/C [16] [%]	viability, T/C [17] [%]	viability, T/C [20] [%]	viability, T/C [21] [%]	viability, T/C [22] [%]	viability, T/C [23] [%]	viability, T/C [26] [%]	viability, T/C [27] [%]	viability, T/C [28] [%]	other results
COc1cc(Nc2ncc3c(n2)-c2ccc(Cl)cc2C(c2c(F)cccc2OC)=NC3)ccc1C(=O)O + NC1CC1c1ccc(-c2cccc(O)c2)cc1	185	282	80.6	34.6	65.4	58.5	54	49.4	41	66.9	56	52.1	39.9	58	48.2	44.8	34.6	52.6	46.4	42.2	viability, T/C [6]: 76.7%; viability, T/C [7]: 65.5%; viability, T/C [12]: 85.2%; viability, T/C [13]: 72.3%; viability, T/C [18]: 78.7%; viability, T/C [19]: 60.7%; viability, T/C [24]: 71.1%; viability, T/C [25]: 53.8%; viability, T/C [29]: 36.9%; viability, T/C [30]: 76.6%; viability, T/C [31]: 59.3%; viability, T/C [32]: 54.1%; viability, T/C [33]: 50.8%; viability, T/C [34]: 40.1%; viability, T/C [35]: 31.6%
O=C(c1cc(Cc2n[nH]c(=O)c3ccccc23)ccc1F)N1CCN(C(=O)C2CC2)CC1 + NC1CCC(NC2CC2c2ccccc2)CC1	> 10000	> 10000	> 10000	> 10000	> 10000	85.1	82.7	89.1	85.8	92.3	93.3	94.4	94.4	82.3	87.4	91.1	87.4	79.8	85.3	69.5	viability, T/C [36]: 84.7%; viability, T/C [37]: 82.1%; viability, T/C [38]: 85%; viability, T/C [39]: 84.4%; viability, T/C [40]: 79.5%; viability, T/C [41]: 75.9%; viability, T/C [29]: 85.5%; viability, T/C [42]: 79.2%; viability, T/C [43]: 77.1%; viability, T/C [32]: 71%; viability, T/C [33]: 73.7%; viability, T/C [34]: 74.4%; viability, T/C [35]: 74.1%; viability, T/C [44]: 62.5%; viability, T/C [45]: 66.8%
Nc1ccccc1NC(=O)c1ccc(CNC(=O)OCc2cccnc2)cc1																					viability, T/C (compound 0.00949 µM): 91.2% and 95%; viability, T/C (compound 0.03 µM): 84.3% and 96.3%; viability, T/C (compound 0.0949 µM): 81.4% and 80.8%; viability, T/C (compound 0.3 µM): 53.1% and 62%; viability, T/C (compound 0.949 µM): 19.8% and 24.2%; viability, T/C (compound 3 µM): 1.79% and 6.46%; IC50 (curve of compound): 342 nM and 416 nM
COc1cc(Nc2ncc3c(n2)-c2ccc(Cl)cc2C(c2c(F)cccc2OC)=NC3)ccc1C(=O)O + NC1CCC(NC2CC2c2ccccc2)CC1	256	454	415	291	523	66.2	56	47.7	43.2	74.5	63	50.5	45.9	73.4	55.5	57.1	40.9	73.1	55.1	51	viability, T/C [6]: 86.1%; viability, T/C [7]: 72.4%; viability, T/C [12]: 89.6%; viability, T/C [13]: 80.1%; viability, T/C [18]: 80.2%; viability, T/C [19]: 78.3%; viability, T/C [24]: 83.1%; viability, T/C [25]: 70%; viability, T/C [29]: 39.1%; viability, T/C [30]: 73%; viability, T/C [31]: 64.3%; viability, T/C [32]: 72.3%; viability, T/C [33]: 61.5%; viability, T/C [34]: 56.8%; viability, T/C [35]: 42.1%
COc1ccc([C@@H](O)c2cc(-c3ncnc4cc(N5CCOCC5)ccc34)c(F)cc2Cl)nn1 + NC1CCC(NC2CC2c2ccccc2)CC1	113	154	128	130	126	80.5	53.5	28.8	20.4	79.6	58.5	35.6	23.3	70.6	55.2	32.8	19.6	69.3	54.4	35.4	viability, T/C [36]: 11%; viability, T/C [37]: 6.4%; viability, T/C [38]: 12%; viability, T/C [39]: 6.71%; viability, T/C [40]: 10.3%; viability, T/C [41]: 6.44%; viability, T/C [29]: 21%; viability, T/C [42]: 9.68%; viability, T/C [43]: 5.91%; viability, T/C [32]: 66.8%; viability, T/C [33]: 54.1%; viability, T/C [34]: 35.2%; viability, T/C [35]: 23.5%; viability, T/C [44]: 10.1%; viability, T/C [45]: 5.83%
